Measurements from patent US6838436B1, “Inhibitors of proteasomal activity for stimulating bone growth” (Osteoscreen Inc., priority 1998, dated 2005).
Marks after values point to notes of the source that are not given here. Where a SMILES comes first, the peptide text is derived from it. The star is where a group is joined. Cbz = O=C(OCc1ccccc1)*; OtBu = CC(C)(C)O*

Columns and labels:
[1] = target: T1, papain (Carica papaya, UniProt P00784); details: cited from earlier work
T1 sequence (P00784 134-345): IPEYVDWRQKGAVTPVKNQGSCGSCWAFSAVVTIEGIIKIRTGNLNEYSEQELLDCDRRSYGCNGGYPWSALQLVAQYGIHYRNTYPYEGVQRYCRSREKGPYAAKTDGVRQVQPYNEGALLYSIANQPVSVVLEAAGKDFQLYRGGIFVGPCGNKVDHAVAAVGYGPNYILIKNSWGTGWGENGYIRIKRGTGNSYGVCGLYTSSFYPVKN

[2] = target: chymotrypsin (Bos taurus, UniProt P00766); details: cited from earlier work
[3] = system: calvaria; assay: Calvarial assay of epoxomicin (Example 7), new bone area; format: cell-based, mouse
Protocol: An assay for bone resorption or bone formation is similar to that described by Gowen M. & Mundy G., J Immunol (1986) 136:2478-82. Briefly, four days after birth, the front and parietal bones of ICR Swiss white mouse pups are removed by microdissection and split along the sagittal suture. In an assay for resorption, the bones are incubated in BGJb medium (Irvine Scientific, Santa Ana, Calif.) plus 0.02% (or lower concentration) β-methylcyclodextrin, wherein the medium also contains test or control substances. The medium used when the assay is conducted to assess bone formation is Fitton and Jackson Modified BGJ Medium (Sigma) supplemented with 6 μg/ml insulin, 6 μg/ml transferrin, 6 ng/ml selenous acid, calcium and phosphate concentrations of 1.25 and 3.0 mM, respectively, and ascorbic acid to a concentration of 100 μg/ml is added every two days. The incubation is conducted at 37° C. in a humidified atmosphere of 5% CO2 and 95% air for 96 hours.
New bone formation was determined (using a 10× objective) by measuring the new bone area formed in one field in 3 representative sections of each bone (4 bones per group). Each measurement was carried out ½ field distance from the end of the suture. Both total bone and old bone area were measured. Data were expressed as new bone area in μm^2.

[4] = system: hair follicles; assay: Topical administration of PSI, hair growth (Examples 13 and 14); format: in vivo, mice
Protocol: PSI was prepared as a topical formulation, where the vehicle was 50% propylene glycol, 30% ethanol, 20% deionized water, at 0.1% concentration of PSI. The solution was applied 3 times a day for 5 days. The mice in a treated group were observed as compared to controls similarly treated with vehicle alone.
When the protocol above was repeated using a 0.5% solution of PSI in groups containing 5 mice each, the number of hairs per 0.8 mm^2 was 60 in the treated mice versus about 10 in the control group. The percentage of follicle area in a region of about 0.8 mm was about 30% as an average in the treated group as compared to 15% as an average in the control group.
In order to determine the minimal effective dosage of PSI, when used topically, a dose response curve for PSI was prepared. All experiments were preformed according to current good laboratory practice regulations (21CFR58). The mice were divided into 7 groups, 10 mice each, wherein one group was control treated only with vehicle and groups 1-6 with a series of increasing concentrations of PSI in a vehicle comprising 50% propylene glycol, 30% ethanol, 20% deionized water. The concentrations were 0.006%, 0.012%, 0.025%, 0.05%, 0.11% and 0.5%.
The mice were anesthetized (50 μl Mouse Cocktail containing 3 ml ketamine, 2 ml small animal rompum, 5 ml NaCl), identified by ear punch code, weighed and the hair on the dorsal side removed by waxing as described in Example 6. After waxing, the animals were photographed. On the following day (day 1), 100 μl of PSI at the above concentrations in vehicle was brushed onto the area of removed hair. A similar application of PSI solution was performed daily for an additional 4 days.
On Day 7 mice were anesthetized and a biopsy of the dorsal treatment area taken using a 6 mm dermal punch; the specimens were fixed in 10% buffered formalin and embedded in paraffin wax. Sections were cut using a standard microtome.
Mice were monitored daily for signs of hair growth, and any hair growth was recorded by photography. On day 21 animals were euthanized (75 mg/kg body weight phenobarbital, IP injection), 2 cm hair samples were taken for optical based fiber analysis, and the remaining dorsal treatment area was fixed in 10% buffered formalin for further histological analysis. Analysis included quantification of hair thickness and quantification of mature hair follicles. Results were expressed as the mean=+/−the standard error of the mean. Data were analyzed by repeated measures of analysis of variance followed by the Tukey-Kramer post test P values of <0.05 were considered significant.

Q: Which “concentration up to which no inhibition appears” value [1] does the source give for CC[C@H](C)[C@H](NC(=O)[C@H]([C@@H](C)CC)N(C)C(C)=O)C(=O)N[C@H](C(=O)N[C@@H](CC(C)C)C(=O)[C@@]1(C)CO1)[C@@H](C)O [Epoxomicin] here?
A: > 50 µM

Q: What about the “concentration up to which no inhibition appears” value [2] of the same compound?
A: > 50 µM

Q: And the “bone formed compared with control” value ([3]; concentrations of 5-10 nM)?
A: significantly more bone was formed than in the control

Q: And the “New Bone Area” value ([3]; dose 0.000625 μM)?
A: 2.78 mm^2 × 10^−3

Q: And the “New Bone Area” value ([3]; dose 0.00125 μM)?
A: 2.80 mm^2 × 10^−3

Q: And the “New Bone Area” value ([3]; dose 0.0025 μM)?
A: 4.04 mm^2 × 10^−3

Q: And the “New Bone Area” value ([3]; dose 0.005 μM)?
A: 6.54# mm^2 × 10^−3

Q: What about the “New Bone Area” value ([3]; dose 0.01 μM) of the same compound?
A: 5.74# mm^2 × 10^−3

Q: Which results are given for CC[C@H](C)[C@H](NC(=O)OCc1ccccc1)C(=O)N[C@@H](CCC(=O)OC(C)(C)C)C(=O)N[C@@H](C)C(=O)N[C@H](C=O)CC(C)C [PSI, N-carbobenzoyl-Ile-Glu-(OtBu)-Ala-Leu-CHO] (Cbz-IE(OtBu)AL-aldehyde)?
A: effectiveness on hair growth ([4]; 0.1% of PSI applied topically 3 times a day for 5 days (additional experiments)): effective; thickness of hair and hair shaft ([4]; topical): thicken both the hair and the hair shaft; percentage of follicle area in a region of about 0.8 mm ([4]; topical 0.5% solution of PSI, average, control 15%): about 30%; number of hairs per 0.8 mm^2 ([4]; topical 0.5% solution of PSI, control about 10): 60; hair growth relative to controls ([4]; topical, 0.1% PSI, 3 times a day for 5 days, day 16): stimulation of hair growth relative to the controls; minimal effective dose ([4]; topical, applied 1 time a day for 4 days): 0.5%
